# Data reported in patent US6713634B2, “Pyrroloazepine derivatives” (Daiichi Suntory Pharma Co., Ltd., priority 1995, dated 2004).
# How the values were obtained:
# α1 receptors = assay: Anti-α1 action: tonic contraction of isolated thoracic aorta induced by 10^−5 M norepinephrine; settings: tonic contraction by 10^−5 M norepinephrine taken as 100%, guinea pig thoracic aorta
# Experimental: The thoracic aorta of each Hartley male guinea pig (body weight: 300-500 g) was excised. A preparation cut in a helical form was suspended under 1 g load in a Magnus cylinder filled with the Tyrode solution which had been aerated with a gas mixture of 95% O2 and 5% CO2 and maintained at 37° C. Using an isometric transducer (“TB-612J”, manufactured by Nihon Kohden Corporation) and a pressure preamplifier (“AP-620G”, manufactured by Nihon Kohden Corporation), variations in tension were measured. The isometric tensions were recorded on a thermal pen-writing recorder (“WT-647G”, manufactured by Nihon Kohden Corporation). Taking the tonic contraction induced by 10^−5 M norepinephrine (NE) as 100%, the percent contractions upon addition of each test drug at 10^−8 M and 10^−7 M were determined as α1 action.
# serotonin-2 receptor = assay: Anti-serotonin (5-HT) action: contraction of isolated superior mesenteric artery induced by 10^−5 M 5-HT; settings: contraction by 10^−5 M 5-HT taken as 100%, guinea pig superior mesenteric artery
# Experimental: (1) Anti-Serotonin (5-HT) Action
# A preparation cut in a helical form was suspended under resting tension of 0.3 g in a Magnus cylinder filled with the Tyrode solution which had been aerated with a gas mixture of 95% O2 and 5% CO2 and maintained at 37° C. Using an isometric transducer (“UL-10”, manufactured by SHINKOH K.K.) and a pressure preamplifier (“DSA-605A”, manufactured by SHINKOH K.K.), variations in tension were measured. The isometric tensions were recorded on a pen-writing recorder (“VP-6537A”, manufactured by NATIONAL K.K.). Taking the contraction induced by 10^−5 M serotonin (5-HT) as 100%, the percent contractions by 10^−5 M 5-HT in the presence of each test drug at 10^−8 M, 10^−7 M and 10^−6 M were determined as anti-5-HT action.
smiles,measurement,setting,value
"Cn1ccc2c1C(=O)CCN(CCCN1CCC(c3noc4cc(F)ccc34)CC1)C2=O [Compound No. 50, 5-[3-[4-(6-fluoro-1,2-benzisoxazol-3-yl)piperidino]propyl]-1-methyl-1,4,5,6,7,8-hexahydropyrrolo[3,2-c]azepine-4,8-dione]",Anti α1 action (% of Control),α1 receptors; test drug 10^−7 M,34.2 % of Control
same,Anti α1 action (% of Control),α1 receptors; test drug 10^−8 M,67.1 % of Control
same,Anti 5-HT action (% of Control),serotonin-2 receptor; test drug 10^−7 M,25.1 % of Control
same,Anti 5-HT action (% of Control),serotonin-2 receptor; test drug 10^−8 M,67.5 % of Control
"Cn1ccc2c1C1(CCN(CCCN3CCN(c4ccc(F)cc4)CC3)C2=O)SCCS1 [Compound No. 52, 5-[3-[4-(4-fluorophenyl)piperazin-1-yl]propyl]-1-methyl-1,4,5,6,7,8-hexahydropyrrolo-[3,2-c]azepin-4-one-8-spiro-2′-(1′,3′-dithiolane)]",Anti α1 action (% of Control),α1 receptors; test drug 10^−7 M,75.8 % of Control
same,Anti α1 action (% of Control),α1 receptors; test drug 10^−8 M,96.8 % of Control
same,Anti 5-HT action (% of Control),serotonin-2 receptor; test drug 10^−7 M,20.9 % of Control
same,Anti 5-HT action (% of Control),serotonin-2 receptor; test drug 10^−8 M,75.5 % of Control
"Cn1ccc2c1C(=NO)CCN(CCCN1CCN(c3ccc(F)cc3)CC1)C2=O [Compound No. 53, 5-[3-[4-(4-fluorophenyl)piperazin-1-yl]propyl]-8-hydroxyimino-1-methyl-1,4,5,6,7,8-hexahydropyrrolo[3,2-c]azepin-4-one]",Anti α1 action (% of Control),α1 receptors; test drug 10^−7 M,60.1 % of Control
same,Anti α1 action (% of Control),α1 receptors; test drug 10^−8 M,86.1 % of Control
same,Anti 5-HT action (% of Control),serotonin-2 receptor; test drug 10^−6 M,48.2 % of Control
same,Anti 5-HT action (% of Control),serotonin-2 receptor; test drug 10^−7 M,87.1 % of Control
"Cn1cc2c(c1)/C(=N\O)CCN(CCCN1CCN(c3ccc(F)cc3)CC1)C2=O [Compound No. 55, 5-[3-[4-(4-fluorophenyl)piperazin-1-yl]propyl]-8-[(Z)-hydroxyimino]-2-methyl-2,4,5,6,7,8-hexahydropyrrolo[3,4-c]azepin-4-one]",Anti α1 action (% of Control),α1 receptors; test drug 10^−7 M,73.5 % of Control
same,Anti α1 action (% of Control),α1 receptors; test drug 10^−8 M,97.6 % of Control
same,Anti 5-HT action (% of Control),serotonin-2 receptor; test drug 10^−6 M,11.0 % of Control
same,Anti 5-HT action (% of Control),serotonin-2 receptor; test drug 10^−7 M,59.5 % of Control
"Cn1ccc2c1C(O)CCN(CCN1CCN(c3ccc(F)cc3)CC1)C2=O (stereo not drawn) [Compound No. 56, 5-[2-[4-(4-fluorophenyl)piperazin-1-yl]ethyl]-8-hydroxy-1-methyl-1,4,5,6,7,8-hexahydropyrrolo[3,2-c]azepin-4-one]",Anti α1 action (% of Control),α1 receptors; test drug 10^−7 M,71.4 % of Control
same,Anti α1 action (% of Control),α1 receptors; test drug 10^−8 M,96.7 % of Control
same,Anti 5-HT action (% of Control),serotonin-2 receptor; test drug 10^−6 M,47.9 % of Control
same,Anti 5-HT action (% of Control),serotonin-2 receptor; test drug 10^−7 M,90.2 % of Control
"Cn1ccc2c1C(O)CCN(CCCN1CCN(c3ccc(F)cc3)CC1)C2=O (stereo not drawn) [Compound No. 57, 5-[3-[4-(4-fluorophenyl)piperazin-1-yl]propyl]-8-hydroxy-1-methyl-1,4,5,6,7,8-hexahydropyrrolo[3,2-c]azepin-4-one]",Anti α1 action (% of Control),α1 receptors; test drug 10^−7 M,91.4 % of Control
same,Anti α1 action (% of Control),α1 receptors; test drug 10^−8 M,100 % of Control
same,Anti 5-HT action (% of Control),serotonin-2 receptor; test drug 10^−6 M,7.5 % of Control
same,Anti 5-HT action (% of Control),serotonin-2 receptor; test drug 10^−7 M,12.0 % of Control
same,Anti 5-HT action (% of Control),serotonin-2 receptor; test drug 10^−8 M,54.6 % of Control
"Cc1cn(C)c2c1C(=O)N(CCCN1CCN(c3ccc(F)cc3)CC1)CCC2O (stereo not drawn) [Compound No. 59, 5-[3-[4-(4-fluorophenyl)piperazin-1-yl]propyl]-8-hydroxy-1,3-dimethyl-1,4,5,6,7,8-hexahydropyrrolo[3,2-c]azepin-4-one]",Anti α1 action (% of Control),α1 receptors; test drug 10^−7 M,47.3 % of Control
same,Anti α1 action (% of Control),α1 receptors; test drug 10^−8 M,81.6 % of Control
same,Anti 5-HT action (% of Control),serotonin-2 receptor; test drug 10^−7 M,12.5 % of Control
same,Anti 5-HT action (% of Control),serotonin-2 receptor; test drug 10^−8 M,48.5 % of Control
"O=C1c2ccn(-c3ccccc3)c2C(O)CCN1CCCN1CCN(c2ccc(F)cc2)CC1 (stereo not drawn) [Compound No. 61, 5-[3-[4-(4-fluorophenyl)piperazin-1-yl]propyl]-8-hydroxy-1-phenyl-1,4,5,6,7,8-hexahydropyrrolo[3,2-c]azepin-4-one]",Anti α1 action (% of Control),α1 receptors; test drug 10^−7 M,39.4 % of Control
same,Anti α1 action (% of Control),α1 receptors; test drug 10^−8 M,96.1 % of Control
same,Anti 5-HT action (% of Control),serotonin-2 receptor; test drug 10^−6 M,37.3 % of Control
same,Anti 5-HT action (% of Control),serotonin-2 receptor; test drug 10^−7 M,74.3 % of Control
"O=C1c2ccn(Cc3ccccc3)c2C(O)CCN1CCCN1CCN(c2ccc(F)cc2)CC1 (stereo not drawn) [Compound No. 62, 1-benzyl-5-[3-[4-(4-fluorophenyl)piperazin-1-yl]propyl]-8-hydroxy-1,4,5,6,7,8-hexahydropyrrolo[3,2-c]azepin-4-one]",Anti α1 action (% of Control),α1 receptors; test drug 10^−7 M,31.7 % of Control
same,Anti α1 action (% of Control),α1 receptors; test drug 10^−8 M,95.0 % of Control
same,Anti 5-HT action (% of Control),serotonin-2 receptor; test drug 10^−6 M,11.1 % of Control
same,Anti 5-HT action (% of Control),serotonin-2 receptor; test drug 10^−7 M,50.6 % of Control
"Cn1ccc2c1C(O)CCN(CCCN1CCC(c3ccccc3)CC1)C2=O (stereo not drawn) [Compound No. 73, 8-hydroxy-1-methyl-5-[3-(4-phenylpiperidino)propyl]-1,4,5,6,7,8-hexahydropyrrolo-[3,2-c]azepin-4-one]",Anti α1 action (% of Control),α1 receptors; test drug 10^−7 M,94.0 % of Control
same,Anti α1 action (% of Control),α1 receptors; test drug 10^−8 M,99.3 % of Control
same,Anti 5-HT action (% of Control),serotonin-2 receptor; test drug 10^−6 M,14.9 % of Control
same,Anti 5-HT action (% of Control),serotonin-2 receptor; test drug 10^−7 M,54.7 % of Control
same,Anti 5-HT action (% of Control),serotonin-2 receptor; test drug 10^−8 M,90.7 % of Control
"Cn1ccc2c1C(O)CCN(CCCN1CCC(C(=O)c3ccc(F)cc3)CC1)C2=O (stereo not drawn) [Compound No. 75, 5-[3-[4-(4-fluorobenzoyl)piperidino]-propyl]-8-hydroxy-1-methyl-1,4,5,6,7,8-hexahydropyrrolo[3,2-c]azepin-4-one]",Anti α1 action (% of Control),α1 receptors; test drug 10^−7 M,70.3 % of Control
same,Anti α1 action (% of Control),α1 receptors; test drug 10^−8 M,98.3 % of Control
same,Anti 5-HT action (% of Control),serotonin-2 receptor; test drug 10^−6 M,25.2 % of Control
same,Anti 5-HT action (% of Control),serotonin-2 receptor; test drug 10^−7 M,71.7 % of Control
"COC1CCN(CCCN2CCN(c3ccc(Cl)cc3)CC2)C(=O)c2ccn(C)c21 (stereo not drawn) [Compound No. 76, 5-[3-[4-(4-chlorophenyl)piperazin-1-yl]propyl]-8-methoxy-1-methyl-1,4,5,6,7,8-hexahydropyrrolo[3,2-c]azepin-4-one]",Anti α1 action (% of Control),α1 receptors; test drug 10^−7 M,88.1 % of Control
same,Anti α1 action (% of Control),α1 receptors; test drug 10^−8 M,98.9 % of Control
same,Anti 5-HT action (% of Control),serotonin-2 receptor; test drug 10^−6 M,7.2 % of Control
same,Anti 5-HT action (% of Control),serotonin-2 receptor; test drug 10^−7 M,35.5 % of Control
"Cn1ccc2c1C=CCN(CCCN1CCN(c3ccc(Cl)cc3)CC1)C2=O [Compound No. 79, 5-[3-[4-(4-chlorophenyl)piperazin-1-yl]propyl]-1-methyl-1,4,5,6-tetrahydropyrrolo[3,2-c]azepin-4-one]",Anti α1 action (% of Control),α1 receptors; test drug 10^−7 M,58.1 % of Control
same,Anti α1 action (% of Control),α1 receptors; test drug 10^−8 M,94.8 % of Control
same,Anti 5-HT action (% of Control),serotonin-2 receptor; test drug 10^−7 M,31.8 % of Control
same,Anti 5-HT action (% of Control),serotonin-2 receptor; test drug 10^−8 M,78.3 % of Control
"Cn1ccc2c1CCCN(CCCN1CCN(c3ccc(F)cc3)CC1)C2=O [Compound No. 82, 5-[3-[4-(4-fluorophenyl)piperazin-1-yl]propyl]-1-methyl-1,4,5,6,7,8-hexahydropyrrolo-[3,2-c]azepin-4-one]",Anti α1 action (% of Control),α1 receptors; test drug 10^−7 M,37.6 % of Control
same,Anti α1 action (% of Control),α1 receptors; test drug 10^−8 M,87.6 % of Control
same,Anti 5-HT action (% of Control),serotonin-2 receptor; test drug 10^−7 M,8.4 % of Control
same,Anti 5-HT action (% of Control),serotonin-2 receptor; test drug 10^−8 M,35.2 % of Control
Cn1ccc2c1[C@H](O)CCN(CCCN1CCN(c3ccc(F)cc3)CC1)C2=O [Compound No. 84],Anti α1 action (% of Control),α1 receptors; test drug 10^−7 M,92.4 % of Control
same,Anti α1 action (% of Control),α1 receptors; test drug 10^−8 M,100 % of Control
same,Anti 5-HT action (% of Control),serotonin-2 receptor; test drug 10^−6 M,11.9 % of Control
same,Anti 5-HT action (% of Control),serotonin-2 receptor; test drug 10^−7 M,61.9 % of Control
same,Anti 5-HT action (% of Control),serotonin-2 receptor; test drug 10^−8 M,82.0 % of Control
